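Each compound was tested at five concentrations against cells in 96-well plates for 48 hours. GI50 is the concentration that inhibits growth by half.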 Activity calls are given as the source filed them. No stated cut-off is given here; in the data, active = GI50 up to about 1.1 µM and inactive = higher.

What all share (assay): NCI tumour cell line growth inhibition, 48 h
Assay [1] deals with IGROV-1.
The test system of assay [2] is NCI-H460.
In assay [3] the test system is A498.
Assay [4] relates to HCT-15.
The test system of assay [5] is NCI-H226.
Assay [6] deals with SK-MEL-5.
The test system of assay [7] is SF-539.
Assay [8] concerns HCC 2998.
The test system of assay [9] is HCT-116.
In assay [10] the test system is SF-295.
Assay [11] concerns SK-MEL-28.
Assay [12] deals with MDA-MB-435.
Assay [13] has as its system NCI/ADR-RES.
Assay [14] deals with MDA-MB-231.
For assay [15], the system named is UO-31.
The test system of assay [16] is MCF7.
Assay [17] concerns PC-3.
For assay [18], the system named is K562.
For assay [19], the system named is MDA-N.
Assay [20] has as its system BT-549.

Regarding `NCCCN1CCN(CC(=O)O)CCN(CCCN)CCN(CC(=O)O)CC1`, the GI50 was 43.9 µM (inactive) in assay [1]; 6.75 µM (inactive) in assay [2]; > 100 µM (inactive) in [3]; 43.8 µM in assay [4]; > 100 µM (inactive) in assay [5]; 4.5 µM (inactive) in [6]. For the same compound, the GI50 in [7] was 68.1 µM (inactive); in assay [8] it was 19.5 µM (inactive); in [9] it was > 100 µM (inactive); in assay [10], > 93.3 µM (inactive); in [11] it was > 100 µM (inactive); in [12] it was > 100 µM (inactive). Moreover, the GI50 in assay [13] was > 100 µM (inactive); in assay [14] it was > 100 µM (inactive); in assay [15] it was > 34.3 µM (inactive); in [16], 44.1 µM (inactive); in assay [17], > 45.1 µM (inactive); in [18], 6.67 µM (inactive). In addition, the results for the GI50 in assay [19] and in [20] were > 35.9 µM (inactive) and > 100 µM (inactive), respectively.

For the compound `Cc1ccc(S(=O)(=O)N2CCN(S(=O)(=O)c3ccc(C)cc3)CCN(S(=O)(=O)c3ccc(C)cc3)Cc3cc(C#N)c(C#N)cc3CN(S(=O)(=O)c3ccc(C)cc3)CC2)cc1`, the GI50 in assay [1] was > 100 µM (inactive); in assay [2], > 100 µM (inactive); in assay [3], 20.7 µM (inactive); in assay [4] it was greater than 100 µM; in assay [5], 56.2 µM (inactive); in assay [6], > 100 µM (inactive). Also, the GI50 in assay [7], in assay [8], in [9], in [10], in [11] and in assay [12] was > 100 µM (inactive) in each case. The GI50 in assay [13] is > 100 µM (inactive); in [14] it was 31 µM (inactive); in [15], > 100 µM (inactive); in assay [16], > 100 µM (inactive); in [17], 39.4 µM (inactive); in assay [18], > 100 µM (inactive). In addition, the values for the GI50 in assay [19] and in assay [20] were 95.7 µM (inactive) and > 100 µM (inactive), respectively.

Consider `COc1cc2c(c3c1c(=O)c1ccccc1n3C)C=CC1(CCCC1)O2`, for which the GI50 in assay [1] was 12.9 µM (inactive); in assay [2], 10.2 µM (inactive); in assay [3], 18 µM (inactive); in assay [4], 14.1 µM; in assay [5], 16 µM (inactive); in assay [6] it was 12.9 µM (inactive). Moreover, the GI50 in assay [7] was 4.16 µM (inactive); in assay [8] it was 21.8 µM (inactive); in assay [9], 15.1 µM (inactive); in assay [10], 3.63 µM (inactive); in assay [11], 13.9 µM (inactive); in [12], 16.4 µM (inactive). Also, the GI50 in [13] is 23.7 µM (inactive); in [14], 12.4 µM (inactive); in assay [16], 16 µM (inactive); in assay [17], > 10 µM (inactive); in [18], 7.5 µM (inactive); in [19] it was 15.3 µM (inactive). Moreover, in [20], the GI50 was 10.1 µM (inactive).

For `O=C(CCN1CCOCC1)c1ccc(Oc2ccc(F)cc2)cc1`, the GI50 in assay [1] is 19.5 µM (inactive); in assay [2], > 100 µM (inactive); in assay [3] it was > 100 µM (inactive); in assay [4] it was 19 µM; in assay [5], 26 µM (inactive); in assay [6] it was 31.3 µM (inactive). Besides, the GI50 in [7] was 17.9 µM (inactive); in assay [8], 37.2 µM (inactive); in [9], 22.5 µM (inactive); in [10] it was > 100 µM (inactive); in assay [11], 28 µM (inactive); in assay [12], 37.6 µM (inactive). Also, the GI50 in assay [13] was 26.9 µM (inactive); in assay [14] it was 19.6 µM (inactive); in assay [15] it was 19.7 µM (inactive); in assay [16] it was 18.7 µM (inactive); in assay [17] it was 19.2 µM (inactive); in [18], 23.6 µM (inactive). In addition, the GI50 in assay [19] is 23.8 µM (inactive); in assay [20] it was 18.2 µM (inactive).

On to `CC(C)C1OCC(CO)CO1` (stereo not given), for which the GI50 in assay [2] is > 100 µM (inactive); in [3], > 100 µM (inactive); in [4] it was greater than 100 µM; in [5], > 100 µM (inactive); in assay [6], > 100 µM (inactive); in assay [7], > 100 µM (inactive). The GI50 in [8], in [9], in assay [10], in assay [11], in [12] and in assay [13] was > 100 µM (inactive) each time. Also, the GI50 in assay [14] is > 100 µM (inactive); in assay [15] it was > 100 µM (inactive); in assay [16] it was > 100 µM (inactive); in assay [17], > 100 µM (inactive); in assay [19] it was > 100 µM (inactive); in [20], 31.6 µM (inactive).

Turning to `CC(C)=CCC[C@@H](C)C1=C(N)C(=O)C(C)=C(O)C1=O`, the GI50 in [1] is 29.9 µM (inactive); in assay [2] it was 33.7 µM (inactive); in assay [3] it was 29.9 µM (inactive); in assay [4], 23.3 µM; in assay [5], 27.5 µM (inactive); in assay [6], 24.8 µM (inactive). For the same compound, the GI50 in [7] is 41.7 µM (inactive); in assay [8] it was > 75 µM (inactive); in [9], 27.6 µM (inactive); in [10], 32.1 µM (inactive); in assay [11], > 75 µM (inactive); in assay [12], 44.8 µM (inactive). The GI50 was 8.28 µM (inactive) in assay [13]; 67.5 µM (inactive) in assay [14]; 36 µM (inactive) in assay [15]; 61.5 µM (inactive) in assay [16]; 54.3 µM (inactive) in assay [17]; 35.7 µM (inactive) in assay [18]. The GI50 in assay [19] was 51.3 µM (inactive); in [20] it was > 75 µM (inactive).

In the case of `CN(C)Cc1cc(/N=N/c2ccccc2)ccc1O`, the GI50 in assay [1] was 32.5 µM (inactive); in assay [2] it was 40.5 µM (inactive); in assay [3] it was 25.1 µM (inactive); in assay [4], 43.1 µM; in assay [5], 95.9 µM (inactive); in assay [6], 15.1 µM (inactive). The GI50 in assay [7] was 67.3 µM (inactive); in assay [8] it was 34.1 µM (inactive); in assay [9], > 100 µM (inactive); in [10], > 100 µM (inactive); in assay [11], 51.4 µM (inactive); in assay [12] it was 34.8 µM (inactive). For the same compound, the GI50 in assay [13] was 24.8 µM (inactive); in [14] it was 32.9 µM (inactive); in assay [15], 21.9 µM (inactive); in assay [16], 89.1 µM (inactive); in assay [17] it was 75.7 µM (inactive); in assay [18], 24.2 µM (inactive). For the same compound, the GI50 was 44 µM (inactive) in assay [19] and 30.8 µM (inactive) in assay [20].

Regarding `CC1(COS(=O)(=O)OCC2(C)COS(=O)(=O)OC2)COS(=O)(=O)OC1`, the GI50 in [1] is 39.2 µM (inactive); in assay [2], > 42.3 µM (inactive); in [3], > 45.8 µM (inactive); in assay [4] it was greater than 35.7 µM; in assay [5], > 41.5 µM (inactive); in [6], > 69.2 µM (inactive). The GI50 in assay [7] was > 100 µM (inactive); in assay [8], > 60.7 µM (inactive); in [9] it was > 52.6 µM (inactive); in [10] it was > 100 µM (inactive); in assay [11], > 100 µM (inactive); in assay [12] it was > 41.2 µM (inactive). Also, the GI50 in [13] is > 48.3 µM (inactive); in [14] it was > 73.6 µM (inactive); in assay [15], > 41.2 µM (inactive); in assay [16], > 22.3 µM (inactive); in assay [17] it was > 29.6 µM (inactive); in assay [18] it was > 26.2 µM (inactive). The results for the GI50 in assay [19] and in [20] were > 72.4 µM (inactive) and > 48.8 µM (inactive), respectively.

In the case of `CC1(C)[C@@H]2CC[C@]1(C)[C@H](OC(=O)CSC#N)C2`, the GI50 in [1] was > 100 µM (inactive); in assay [2] it was > 100 µM (inactive); in [3] it was > 100 µM (inactive); in [4] it was greater than 100 µM; in assay [5], > 100 µM (inactive); in assay [6] it was > 100 µM (inactive). Besides, the GI50 in assay [7] was 28.7 µM (inactive); in [8], > 100 µM (inactive); in assay [9], 40.4 µM (inactive); in assay [10], > 100 µM (inactive); in assay [11], > 100 µM (inactive); in assay [12] it was 46.2 µM (inactive). Further, the GI50 is > 100 µM (inactive) in assay [13]; > 100 µM (inactive) in assay [14]; 39.1 µM (inactive) in assay [15]; 65.9 µM (inactive) in assay [16]; > 100 µM (inactive) in assay [17]; > 100 µM (inactive) in assay [19]. Besides, in assay [20], the GI50 was > 100 µM (inactive).

Consider `C=C(CC[C@@H](C(=O)O)[C@H]1[C@H](O)C[C@@]2(C)C3=CC[C@@H](C(=C)C)[C@](C)(CCC(=O)O)C3=CC[C@]12C)C(C)C` [PORICOIC ACID A], for which the GI50 in [2] is 18.2 µM (inactive); in assay [3], 23.6 µM (inactive); in assay [4], 17.2 µM; in [5] it was 19.7 µM (inactive); in [6] it was 20.4 µM (inactive); in [7], 20 µM (inactive). Further, the GI50 in assay [8] is 17.9 µM (inactive); in [9], 16.4 µM (inactive); in assay [10] it was 17.5 µM (inactive); in [11] it was 19.4 µM (inactive); in [12] it was 18.8 µM (inactive); in assay [13] it was 19.7 µM (inactive). The GI50 is 20.8 µM (inactive) in assay [14]; 17.2 µM (inactive) in [15]; 17.1 µM (inactive) in assay [16]; 18.7 µM (inactive) in [17]; 26.5 µM (inactive) in [18]; 16.9 µM (inactive) in [19]. Besides, the GI50 in assay [20] is 18.5 µM (inactive).

The values are drawn from ChEMBL document CHEMBL1201862, “PubChem BioAssay data set” (2004).
